Data reported in the supplement of paper PMC10790783.

Tested on: MRC5-hT fibroblasts expressing HCMV UL38 (glucose-free medium)
Assay: rescue of cell number (AUC of dose-response) relative to untreated glucose-free control; higher = stronger protection from glucose-starvation-induced cell death
Conditions: glucose: 0 (glucose-free DMEM); 96 h; dose range 0.001-20, 10-point curve µM
Experimental: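 MRC5-hT fibroblasts stably expressing HCMV UL38 were seeded in 384-well plates, serum-starved for 24 h, switched to glucose-free DMEM, and pin-transferred with a metabolism-focused compound library as 10-point dose curves (1 nM to 20 µM; n=2). Nuclei were counted by Hoechst imaging 96 h after glucose withdrawal.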

OCCN(CCO)c1nc(N2CCCCC2)c2nc(N(CCO)CCO)nc(N3CCCCC3)c2n1 [Dipyridamole]
rescue of cell number: 141%

CCCCCC[C@H]1C(=O)O[C@H](C)[C@H](NC(=O)c2cccc(NC=O)c2O)C(=O)O[C@@H](C)[C@@H]1OC(=O)CC(C)C [Antimycin_A]
rescue of cell number: -7.1%

CC1=C(/C=C/C(C)=C/C=C/C(C)=C\C(=O)O)C(C)(C)CCC1 [Isotretinoin]
rescue of cell number: 128%

O=c1[nH]cc(F)c(=O)[nH]1 [5_Fluorouracil]
rescue of cell number: -15.2%

CCCc1cc(-c2nc(-c3ccc(C)cc3)cs2)ccn1 [Fatostatin_A]
rescue of cell number: 76.5%

CCc1ccc(CCOc2ccc(CC3SC(=O)NC3=O)cc2)nc1 (configuration not stated) [Pioglitazone]
rescue of cell number: 69%

Cn1c2cc([S+](C)[O-])sc2c2cnn(Cc3cccc(N)c3)c(=O)c21 (configuration not stated) [TEPP_46]
rescue of cell number: 92.3%

S=c1[nH]cnc2nc[nH]c12 [Mercaptopurine]
rescue of cell number: -32.1%

CN(C)C(=N)NC(=N)N [Metformin]
rescue of cell number: -36.3%

Nc1nc(F)nc2c1ncn2[C@@H]1O[C@H](CO)[C@@H](O)[C@@H]1O [Fludarabine]
rescue of cell number: 103%

S=C=NCCc1ccccc1 [PEITC]
rescue of cell number: 37.8%

CC1=CC(=O)c2c(O)cccc2C1=O [Plumbagin]
rescue of cell number: 34.3%

CN(NC(=O)CC(=O)NN(C)C(=S)c1ccccc1)C(=S)c1ccccc1 [Elesclomol]
rescue of cell number: 111%

COc1cccc2c(NCc3ccccc3)nc(-n3c(N)nc4ccccc43)nc12 [ML240]
rescue of cell number: 57.1%

OC[C@H]1O[C@H]([S-])[C@H](O)[C@@H](O)[C@@H]1O.[Au+] [Aurothioglucose]
rescue of cell number: -13.7%

O=c1cnn([C@@H]2O[C@H](CO)[C@@H](O)[C@H]2O)c(=O)[nH]1 [6_Azauridine]
rescue of cell number: -34.1%

CCc1c(-c2ccccc2)c(-c2ccccc2)nn1-c1ccccc1-c1cccc(OCC(=O)O)c1
rescue of cell number: -14.6%

CCOC(=O)[C@@H](N)CCC(=O)N[C@@H](CSCc1ccccc1)C(=O)N[C@@H](C(=O)OCC)c1ccccc1 [Ezatiostat]
rescue of cell number: -9.45%

O=C1CSC(c2ccccc2Cl)c2cc(Cl)ccc2N1 (configuration not stated)
rescue of cell number: 3.61%

CC(=O)N1CCN(c2ccc(OCC3COC(Cn4ccnc4)(c4ccc(Cl)cc4Cl)O3)cc2)CC1 (configuration not stated) [Ketoconazole]
rescue of cell number: -8.71%

OC[C@H]1NC[C@H](O)[C@@H](O)[C@@H]1O [1_Deoxynojirimycin]
rescue of cell number: 5.66%

S=c1nc[nH]c2nc[nH]c12 [6_Mercaptopurine]
rescue of cell number: -28.9%

CC(C)(O)CNc1nc(Nc2ccnc(C(F)(F)F)c2)nc(-c2cccc(C(F)(F)F)n2)n1 [AG-221]
rescue of cell number: 26.9%

O=C(O)c1ccccc1SC1=NS(=O)(=O)c2ccccc21
rescue of cell number: -13.9%

O=C(O)C[C@@]1(O)C[C@@H](CCCCCCc2ccc(Cl)cc2Cl)OC1=O
rescue of cell number: 45.4%

Cc1cn[nH]c1 [Fomepizole]
rescue of cell number: 81.1%

NCCOCCOCCNC(=O)Cc1ccc(Nc2nc(NCc3ccc(F)cc3)nc(NCC3CCCCC3)n2)cc1 [AP-III-a4]
rescue of cell number: 33.4%

[N-]=[N+]=[N-] [Sodium_Azide]
rescue of cell number: -38.1%

O=C(O)c1nn(Cc2ccc(Cl)cc2Cl)c2ccccc12 [Lonidamine]
rescue of cell number: -29%

CCN[C@H]1C[C@H](C)S(=O)(=O)c2sc(S(N)(=O)=O)cc21 [Dorzolamide]
rescue of cell number: 104%

O=C1CCCC(=O)C1C(=O)c1ccc(C(F)(F)F)cc1[N+](=O)[O-] [Nitisinone]
rescue of cell number: 5%

O=C(O)Cc1ccccc1Nc1c(Cl)cccc1Cl [Diclofenac]
rescue of cell number: -20%

Cc1nc(=O)c2cc(CN(C)c3ccc(C(=O)N[C@@H](CCC(=O)O)C(=O)O)s3)ccc2[nH]1 [Raltitrexed]
rescue of cell number: -26.7%

O=C(/C=C/c1ccc(O)c(O)c1)O[C@@H]1C[C@](O)(C(=O)O)C[C@@H](O)[C@H]1O [Chlorogenic_acid]
rescue of cell number: 95%

O[C@H]1[C@H]2[C@H](O)CCCN2C[C@H]1O [Swainsonine]
rescue of cell number: -31.9%

O=C(Oc1ccc([N+](=O)[O-])cc1)N1CCC(C(O)(c2ccc3c(c2)OCO3)c2ccc3c(c2)OCO3)CC1 [JZL184]
rescue of cell number: 136%

CCCCC[C@H](CC(=O)NO)C(=O)N[C@H](C(=O)N1CCC[C@H]1CO)C(C)C [Actinonin]
rescue of cell number: -1.46%

NOCC[C@H](N)C(=O)O [L_Canaline]
rescue of cell number: 68%

C[S+]([O-])CCCCN=C=S (configuration not stated) [Sulforaphane]
rescue of cell number: -10.7%

COc1ccccc1OCC(O)CN1CCN(CC(=O)Nc2c(C)cccc2C)CC1 (configuration not stated) [Ranolazine]
rescue of cell number: -35.4%

CC(C)=CCC1=C(O)C(=O)c2ccccc2C1=O [Lapachol]
rescue of cell number: 57.7%

C=C(C)[C@@H]1CC[C@]2(C(=O)O)CC[C@]3(C)[C@H](CC[C@@H]4[C@@]5(C)CC[C@H](O)C(C)(C)[C@@H]5CC[C@]43C)[C@@H]12 [Betulinic_acid]
rescue of cell number: 17.8%

CCN(CC)Cc1ccc(C(=O)N(CCc2ccccc2OC)[C@@H]2CCNC2)cc1
rescue of cell number: 63.9%

O=C(O)CC[N+](=O)[O-] [3_Nitropropionic_acid]
rescue of cell number: -31.7%

Cc1n[nH]c(C)c1Cc1sc2c(c1C(=O)N1C[C@H](O)CO1)c(=O)n(C)c(=O)n2CC(C)C
rescue of cell number: 78.9%

CCN(CC)C(=S)SSC(=S)N(CC)CC [Disulfiram]
rescue of cell number: 113%

CCCCCCCCc1ccc(CCC(N)(CO)CO)cc1 [Fingolimod]
rescue of cell number: -1.64%

CNC(=O)c1ccc2cc([C@@]3(O)CCn4cncc43)ccc2c1 [TAK_700]
rescue of cell number: -25.3%

Nc1ccn([C@@H]2O[C@H](CO)[C@@H](O)C2(F)F)c(=O)n1 [Gemcitabine]
rescue of cell number: -5.76%

CC1(C)C(N(O)C(=O)Nc2ccc(Cl)cc2)N(c2ccc(Cl)cc2)C(=O)N1CC(=O)NN=CC=Cc1ccc([N+](=O)[O-])o1 (configuration not stated) [Eeyarestatin_I]
rescue of cell number: 11.4%

CCCCCCCCCCCCCCCCOc1nc2ccc(C)cc2c(=O)o1 [Cetilistat]
rescue of cell number: -5.21%

Cc1ccc(-c2cc(=O)c3ccc4ccccc4c3o2)cc1
rescue of cell number: 155%

Nc1cccc(S(=O)(=O)N2CCCN(S(=O)(=O)c3ccc4c(c3)OCCO4)CC2)c1 [DASA-58]
rescue of cell number: 68%

Cc1cnc(Nc2ccc(OCCN3CCCC3)cc2)nc1Nc1cccc(S(=O)(=O)NC(C)(C)C)c1 [Fedratinib]
rescue of cell number: 40.7%

Oc1cc(Cl)ccc1Oc1ccc(Cl)cc1Cl [Triclosan]
rescue of cell number: 5.01%

CC(C)(C)c1ccc(S(=O)(=O)NCc2ccc(C(=O)Nc3cccnc3)cc2)cc1 [STF_31]
rescue of cell number: 26.1%

C/C=C/C/C=C/CCC(=O)[C@H]1O[C@H]1C(N)=O [Cerulenin]
rescue of cell number: 34.9%

C[N+](C)(C)CCO.C[N+](C)(C)CCO.[SH-].[SH-].[S]=[Mo]=[S] [ATN-224]
rescue of cell number: -20.1%

CC(C)(C#N)c1cc(Cn2cncn2)cc(C(C)(C)C#N)c1 [Anastrozole]
rescue of cell number: 29.4%

CC/C=C\C[C@H]1C(=O)CC[C@@H]1CC(=O)O [Jasmonate]
rescue of cell number: -19.1%

CC1=C(CC(=O)O)c2cc(F)ccc2/C1=C\c1ccc([S+](C)[O-])cc1 (configuration not stated) [Sulindac]
rescue of cell number: -22.1%

NS(=O)(=O)c1cc(C(=O)O)c(NCc2ccco2)cc1Cl [Furosemide]
rescue of cell number: -15.9%

CN(Cc1cnc2nc(N)nc(N)c2n1)c1ccc(C(=O)N[C@@H](CCC(=O)O)C(=O)O)cc1 [Methotrexate]
rescue of cell number: -33.3%

CCCC(CCC)C(=O)O [Valproic_acid]
rescue of cell number: -34%

O=c1oc2ccccc2c(O)c1Cc1c(O)c2ccccc2oc1=O [Dicoumarol]
rescue of cell number: -17.7%

OC[C@H]1O[C@@H](c2ccc(Cl)c(Cc3ccc(O[C@H]4CCOC4)cc3)c2)[C@H](O)[C@@H](O)[C@@H]1O [Empagliflozin]
rescue of cell number: 86.7%

CCOC(=O)c1ccc(-c2ccc(OC(=O)N(C)Cc3cccc(-c4ccncc4)c3)cc2)cc1 [WWL_113]
rescue of cell number: -23.8%
